Experimental data as given in the supplement of paper PMC10307832.

Key:
Experiment in all cases: relative viability (nuclei count vs DMSO), 5 days (fraction); higher = more cells survive
NCI-H2347 = system: NCI-H2347
Method in brief: (§1)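 Lung cancer cell lines in 1536-well plates were dosed by pin tool the day after seeding, either with one drug alone or with a fixed anchor-drug dose plus five library-drug doses (not always all listed) in √10 steps. After 5 days, cells were fixed and their nuclei stained in one step (final 0.05% Triton X-100, 1% formaldehyde, 1 ug/ml Hoechst), then counted on 4× images. Relative viability is the nuclei count in treated wells divided by that in vehicle wells. Values are medians of duplicate plates.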

NCI-H1563 = system: NCI-H1563
Method in brief: as §1

NCI-H441 = system: NCI-H441
Method in brief: as §1

NCI-H661 = system: NCI-H661
Method in brief: as §1

NCI-H322M = system: NCI-H322M
Method in brief: as §1

NCI-H3122 = system: NCI-H3122
Method in brief: as §1

NCI-H1651 = system: NCI-H1651
Method in brief: as §1

PC-14 = system: PC-14
Method in brief: as §1

LCLC-103H = system: LCLC-103H
Method in brief: as §1

NCI-H727 = system: NCI-H727
Method in brief: as §1

NCI-H596 = system: NCI-H596
Method in brief: as §1

RERF-LC-KJ = system: RERF-LC-KJ
Method in brief: as §1

NCI-H1755 = system: NCI-H1755
Method in brief: as §1

NCI-H1355 = system: NCI-H1355
Method in brief: as §1

NCI-H1915 = system: NCI-H1915
Method in brief: as §1

NCI-H1792 = system: NCI-H1792
Method in brief: as §1

NCI-H520 = system: NCI-H520
Method in brief: as §1

LXF-289 = system: LXF-289
Method in brief: as §1

NCI-H460 = system: NCI-H460
Method in brief: as §1

## O=c1cc(N2CCOCC2)oc2c(-c3cccc4c3sc3ccccc34)cccc12 + CC(C)C[C@H](NC(=O)[C@H](Cc1ccccc1)NC(=O)c1cnccn1)B(O)O [Bortezomib] (partner 0.002 µM)
NCI-H2347; first compound 0.01 µM
  relative viability: 1.15
NCI-H2347; first compound 0.03162 µM
  relative viability: 1.12
NCI-H2347; first compound 0.1 µM
  relative viability: 0.838
NCI-H2347; first compound 0.3162 µM
  relative viability: 0.835
NCI-H2347; first compound 1 µM
  relative viability: 0.839
NCI-H1563; first compound 0.01 µM
  relative viability: 1
NCI-H1563; first compound 0.03162 µM
  relative viability: 0.809
NCI-H1563; first compound 0.1 µM
  relative viability: 0.9
NCI-H1563; first compound 0.3162 µM
  relative viability: 0.734
NCI-H1563; first compound 1 µM
  relative viability: 0.762
NCI-H441; first compound 0.01 µM
  relative viability: 0.443
NCI-H441; first compound 0.03162 µM
  relative viability: 0.565
NCI-H441; first compound 0.1 µM
  relative viability: 0.487
NCI-H441; first compound 0.3162 µM
  relative viability: 0.301
NCI-H441; first compound 1 µM
  relative viability: 0.684
NCI-H661; first compound 0.01 µM
  relative viability: 0.681
NCI-H661; first compound 0.03162 µM
  relative viability: 0.89
NCI-H661; first compound 0.1 µM
  relative viability: 0.752
NCI-H661; first compound 0.3162 µM
  relative viability: 0.714
NCI-H661; first compound 1 µM
  relative viability: 0.756
NCI-H322M; first compound 0.01 µM
  relative viability: 1.24
NCI-H322M; first compound 0.03162 µM
  relative viability: 1.39
NCI-H322M; first compound 0.3162 µM
  relative viability: 1.19
NCI-H322M; first compound 1 µM
  relative viability: 1.03
NCI-H3122; first compound 0.01 µM
  relative viability: 1.02
NCI-H3122; first compound 0.03162 µM
  relative viability: 0.907
NCI-H3122; first compound 0.1 µM
  relative viability: 1.02
NCI-H3122; first compound 0.3162 µM
  relative viability: 0.947
NCI-H3122; first compound 1 µM
  relative viability: 1.02
NCI-H1651; first compound 0.01 µM
  relative viability: 0.897
NCI-H1651; first compound 0.03162 µM
  relative viability: 0.991
NCI-H1651; first compound 0.1 µM
  relative viability: 0.952
NCI-H1651; first compound 0.3162 µM
  relative viability: 0.939
NCI-H1651; first compound 1 µM
  relative viability: 0.871
PC-14; first compound 0.01 µM
  relative viability: 0.954
PC-14; first compound 0.03162 µM
  relative viability: 0.763
PC-14; first compound 0.1 µM
  relative viability: 0.868
PC-14; first compound 0.3162 µM
  relative viability: 0.772
PC-14; first compound 1 µM
  relative viability: 0.864
LCLC-103H; first compound 0.01 µM
  relative viability: 1.16
LCLC-103H; first compound 0.03162 µM
  relative viability: 1.04
LCLC-103H; first compound 0.1 µM
  relative viability: 0.954
LCLC-103H; first compound 0.3162 µM
  relative viability: 1.04
LCLC-103H; first compound 1 µM
  relative viability: 0.877
NCI-H727; first compound 0.01 µM
  relative viability: 0.961
NCI-H727; first compound 0.03162 µM
  relative viability: 0.937
NCI-H727; first compound 0.1 µM
  relative viability: 0.764
NCI-H727; first compound 0.3162 µM
  relative viability: 0.84
NCI-H727; first compound 1 µM
  relative viability: 0.79
NCI-H596; first compound 0.01 µM
  relative viability: 0.897
NCI-H596; first compound 0.03162 µM
  relative viability: 1.07
NCI-H596; first compound 0.1 µM
  relative viability: 1.37
NCI-H596; first compound 0.3162 µM
  relative viability: 1.06
NCI-H596; first compound 1 µM
  relative viability: 1.08
RERF-LC-KJ; first compound 0.01 µM
  relative viability: 1.1
RERF-LC-KJ; first compound 0.03162 µM
  relative viability: 1.12
RERF-LC-KJ; first compound 0.1 µM
  relative viability: 1.13
RERF-LC-KJ; first compound 0.3162 µM
  relative viability: 1.22
RERF-LC-KJ; first compound 1 µM
  relative viability: 1.09
NCI-H1755; first compound 0.01 µM
  relative viability: 1.02
NCI-H1755; first compound 0.03162 µM
  relative viability: 0.873
NCI-H1755; first compound 0.1 µM
  relative viability: 0.959
NCI-H1755; first compound 0.3162 µM
  relative viability: 1.03
NCI-H1755; first compound 1 µM
  relative viability: 0.977
NCI-H1355; first compound 0.01 µM
  relative viability: 1.26
NCI-H1355; first compound 0.03162 µM
  relative viability: 1.15
NCI-H1355; first compound 0.3162 µM
  relative viability: 1.19
NCI-H1355; first compound 1 µM
  relative viability: 1.25
NCI-H1915; first compound 0.01 µM
  relative viability: 0.994
NCI-H1915; first compound 0.03162 µM
  relative viability: 1.01
NCI-H1915; first compound 0.1 µM
  relative viability: 0.867
NCI-H1915; first compound 0.3162 µM
  relative viability: 0.94
NCI-H1915; first compound 1 µM
  relative viability: 0.995
NCI-H1792; first compound 0.01 µM
  relative viability: 0.965
NCI-H1792; first compound 0.03162 µM
  relative viability: 0.912
NCI-H1792; first compound 0.1 µM
  relative viability: 0.965
NCI-H1792; first compound 0.3162 µM
  relative viability: 0.938
NCI-H1792; first compound 1 µM
  relative viability: 0.955
NCI-H520; first compound 0.01 µM
  relative viability: 0.66
NCI-H520; first compound 0.03162 µM
  relative viability: 0.446
NCI-H520; first compound 0.1 µM
  relative viability: 0.472
NCI-H520; first compound 0.3162 µM
  relative viability: 0.64
NCI-H520; first compound 1 µM
  relative viability: 0.752
LXF-289; first compound 0.01 µM
  relative viability: 1.01
LXF-289; first compound 0.03162 µM
  relative viability: 0.967
LXF-289; first compound 0.1 µM
  relative viability: 1.1
LXF-289; first compound 0.3162 µM
  relative viability: 1.03
LXF-289; first compound 1 µM
  relative viability: 1.05
NCI-H460; first compound 0.01 µM
  relative viability: 1.01
NCI-H460; first compound 0.03162 µM
  relative viability: 1.13
NCI-H460; first compound 0.1 µM
  relative viability: 1.3
NCI-H460; first compound 0.3162 µM
  relative viability: 1.06
NCI-H460; first compound 1 µM
  relative viability: 1.07
